Consider six compounds from patent US20050009924A1 (priority 2003, published 2005).

The test system of one series is human hepatoma G2 cells. In words: Cytotoxicity assay (XTT colorimetric), Hep G2. Type of series: cell-based. As to conditions: 48 h of drug exposure.
A further series has as its system rat glioma C6 cells. In words: Cytotoxicity assay (XTT colorimetric), C6 cells. The series is classed as cell-based. Particulars: 48 h of drug exposure. For orientation: Tetrazolium assays rely on reduction of a dye to a coloured formazan, in cell work by metabolically active cells.
Series [1] has as its system hepatitis B virus transfected hepatoma cell lines, HepG 2.2.15 cells. The series can be described thus: Cytotoxicity assay, 2.2.15 cells. Type of series: cell-based, human. As to conditions: 48 h of drug exposure.
The subject of series [2] is transcriptional activity of hTERT. In words: SEAP reporter assay of hTERT expression, PhTERT-SEAP (hTERT-BJ1). The series is classed as cell-based, human. As to conditions: PhTERT-SEAP (hTERT-BJ1). The essentials:
(§1)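 Drug exposure: varying amounts, 24 h, following 24 h culture at 37° C and fresh medium. Media heat-inactivated (65° C, 10 min) to remove endogenous phosphatases, then combined 1:1 with diethanolamine/MgCl2/homoarginine buffer and 12 mM p-nitrophenyl phosphate; A405 slope recorded.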

Series [3] has the same test system. The series can be described thus: SEAP reporter assay of hTERT expression, PhTERT-SEAP (H1299). The series is classed as cell-based, human. As to conditions: PhTERT-SEAP(hTERT-H1299). The essentials: as §1
Background: In a reporter assay the amount or activity of a reporter protein is the signal.

The test system of series [4] is non-small-cell lung cancer cells H1299. The series can be described thus: MTT relative viability, PhTERT-SEAP (H1299) cells. As to conditions: PhTERT-SEAP(hTERT-H1299).
For another series, the system named is hTERT-BJ1 cells. The series can be described thus: MTT relative viability, PhTERT-SEAP (hTERT-BJ1) cells. As to conditions: PhTERT-SEAP (hTERT-BJ1).

Consider `O=C1c2ccccc2C(=O)c2c(NC(=O)C3CCCC3)ccc(NC(=O)C3CCCC3)c21` [VI20, 1,4-Bis(cyclopentaneamido)-9,110-anthracenedione], for which the half-maximal inhibitory concentration (IC50) (with human hepatoma G2 cells; in the series on rat glioma C6 cells; in series [1]) was > 20 µM throughout. Also, the “Relative SEAP activity (%)” value in series [2] (2.3 μM) was 85 ± 7.7%; in series [2] (23 μM), 93 ± 18.5%; in series [2] (233 μM), 63 ± 36.5%; in series [3] (2.3 μM), 119 ± 8.5%; in series [3] (23 μM) it was 118 ± 9.2%; in series [3] (233 μM) it was 113 ± 8.9%. Moreover, the SEAP/vibility in series [2] (2.3 μM) is given as 0.81; in series [2] (23 μM), 0.90; in series [2] (233 μM), 0.67; in series [3] (2.3 μM), 1.11; in series [3] (23 μM) it was 1.15; in series [3] (233 μM) it was 1.23. The “Relative MTT viability (%)” value in series [4] (2.3 μM) was 107 ± 6.1%; in series [4] (23 μM), 103 ± 6.1%; in series [4] (233 μM), 92 ± 8.6%; in the series on hTERT-BJ1 cells (2.3 μM) it was 106 ± 2.3%; in the series with hTERT-BJ1 cells (23 μM) it was 103 ± 4.4%; in the series on hTERT-BJ1 cells (233 μM), 93 ± 5.7%.
Regarding `O=C1c2ccccc2C(=O)c2c(NC(=O)C3CC3)ccc(NC(=O)C3CC3)c21` [VI21, 1,4-Bis(cyclopropionamido)-9,10-anthracenedione], the IC50 (in the series on human hepatoma G2 cells; in the series on rat glioma C6 cells; in series [1]) was > 20 µM in each case. Moreover, the “Relative SEAP activity (%)” value in series [2] (2.6 μM) is 64 ± 9.5%; in series [2] (26 μM), 54 ± 8.8%; in series [2] (267 μM) it was 43 ± 8.3%; in series [3] (2.6 μM), 108 ± 4.9%; in series [3] (26 μM), 106 ± 7.3%; in series [3] (267 μM) it was 92 ± 5.9%. Moreover, the SEAP/vibility amounted to 0.62 in series [2] (2.6 μM); 0.66 in series [2] (26 μM); 0.74 in series [2] (267 μM); 1.14 in series [3] (2.6 μM); 1.21 in series [3] (26 μM); 2.23 in series [3] (267 μM). In addition, the “Relative MTT viability (%)” value is 95 ± 4.2% in series [4] (2.6 μM); 88 ± 4.2% in series [4] (26 μM); 41 ± 4.6% in series [4] (267 μM); 103 ± 6.8% in the series with hTERT-BJ1 cells (2.6 μM); 82 ± 5.9% with hTERT-BJ1 cells (26 μM); 58 ± 4.1% in the series with hTERT-BJ1 cells (267 μM).
Regarding `O=C(Nc1ccc(NC(=O)c2cc(F)cc(Cl)c2Cl)c2c1C(=O)c1ccccc1C2=O)c1cc(F)cc(Cl)c1Cl` [VI23], the half-inhibitory concentration (IC50) (in the series with human hepatoma G2 cells; in the series on rat glioma C6 cells; in series [1]) was > 20 µM throughout. Moreover, the “Relative SEAP activity (%)” value in series [2] (1.6 μM) stood at 113 ± 16.0%; in series [2] (16 μM), 131 ± 19.1%; in series [2] (161 μM) it was 106 ± 17.3%; in series [3] (1.6 μM) it was 102 ± 4.1%; in series [3] (16 μM), 102 ± 5.1%; in series [3] (161 μM), 83 ± 4.0%. For the same compound, the SEAP/vibility in series [2] (1.6 μM) amounted to 1.02; in series [2] (16 μM), 1.20; in series [2] (161 μM), 1.05; in series [3] (1.6 μM) it was 1.04; in series [3] (16 μM), 0.99; in series [3] (161 μM), 0.95. Moreover, the “Relative MTT viability (%)” value in series [4] (1.6 μM) came to 98 ± 7.0%; in series [4] (16 μM), 103 ± 8.7%; in series [4] (161 μM), 87 ± 5.1%; with hTERT-BJ1 cells (1.6 μM), 111 ± 6.8%; with hTERT-BJ1 cells (16 μM), 110 ± 7.1%; with hTERT-BJ1 cells (161 μM) it was 101 ± 6.6%.
Regarding `O=C(Nc1ccc(NC(=O)c2ccco2)c2c1C(=O)c1ccccc1C2=O)c1ccco1` [VI24, 1,4-Bis(2-furoylamido)-9,10-anthracenedione], the 50% inhibitory concentration (IC50) (with human hepatoma G2 cells; in the series on rat glioma C6 cells; in series [1]) was > 20 µM each time. The “Relative SEAP activity (%)” value in series [2] (2.3 μM) stood at 39 ± 7.8%; in series [2] (23 μM), 45 ± 11.0%; in series [2] (234 μM), 37 ± 15.0%; in series [3] (2.3 μM), 99 ± 7.8%; in series [3] (23 μM), 97 ± 4.6%; in series [3] (234 μM), 90 ± 2.9%. Moreover, the SEAP/vibility in series [2] (2.3 μM) is listed as 0.43; in series [2] (23 μM), 0.65; in series [2] (234 μM), 0.51; in series [3] (2.3 μM), 0.99; in series [3] (23 μM) it was 1.30; in series [3] (234 μM), 2.83. Also, the “Relative MTT viability (%)” value came out at 101 ± 6.0% in series [4] (2.3 μM); 75 ± 3.9% in series [4] (23 μM); 32 ± 5.1% in series [4] (234 μM); 91 ± 9.5% with hTERT-BJ1 cells (2.3 μM); 69 ± 10.7% in the series on hTERT-BJ1 cells (23 μM); 72 ± 11.3% in the series on hTERT-BJ1 cells (234 μM).
Turning to `Cc1cc(C(=O)Nc2ccc(NC(=O)c3cc(C)oc3C)c3c2C(=O)c2ccccc2C3=O)c(C)o1` [VI26, 1,4-Bis(2,5-dimethylfuran-3-carbonylamido)-9,10-anthracenedione], the IC50 (in the series with human hepatoma G2 cells; in the series with rat glioma C6 cells; in series [1]) was > 20 µM in each case. The “Relative SEAP activity (%)” value in series [2] (2.0 μM) worked out at 84 ± 13.3%; in series [2] (20 μM) it was 79 ± 14.7%; in series [2] (207 μM), 81 ± 16.1%; in series [3] (2.0 μM), 104 ± 10.8%; in series [3] (20 μM), 103 ± 10.0%; in series [3] (207 μM), 98 ± 10.5%. The SEAP/vibility in series [2] (2.0 μM) was determined as 0.83; in series [2] (20 μM), 0.78; in series [2] (207 μM), 0.88; in series [3] (2.0 μM), 1.20; in series [3] (20 μM) it was 1.46; in series [3] (207 μM) it was 2.10. Moreover, the “Relative MTT viability (%)” value in series [4] (2.0 μM) was 87 ± 4.9%; in series [4] (20 μM), 71 ± 2.3%; in series [4] (207 μM) it was 47 ± 2.6%; in the series on hTERT-BJ1 cells (2.0 μM) it was 101 ± 6.2%; in the series with hTERT-BJ1 cells (20 μM), 101 ± 5.8%; with hTERT-BJ1 cells (207 μM) it was 93 ± 7.1%.
`O=C(CSc1ccccc1)Nc1ccc(NC(=O)CSc2ccccc2)c2c1C(=O)c1ccccc1C2=O` [VI28, 1,4-Bis(phenylthioacetamido)-9,10-anthracenedione]: the concentration for half-maximal inhibition (IC50) (in the series with human hepatoma G2 cells; in the series with rat glioma C6 cells; in series [1]) was > 20 µM throughout. Also, the “Relative SEAP activity (%)” value in series [2] (1.8 μM) was 14 ± 14.7%; in series [2] (18 μM), 23 ± 9.5%; in series [2] (185 μM), 7 ± 9.6%; in series [3] (1.8 μM), 93 ± 3.2%; in series [3] (18 μM), 92 ± 3.5%; in series [3] (185 μM), 80 ± 4.0%. In addition, the SEAP/vibility in series [2] (1.8 μM) was 0.12; in series [2] (18 μM), 0.21; in series [2] (185 μM), 0.12; in series [3] (1.8 μM), 0.89; in series [3] (18 μM) it was 0.96; in series [3] (185 μM) it was 1.35. Also, the “Relative MTT viability (%)” value was determined as 104 ± 5.6% in series [4] (1.8 μM); 96 ± 4.3% in series [4] (18 μM); 59 ± 3.8% in series [4] (185 μM); 115 ± 4.8% in the series on hTERT-BJ1 cells (1.8 μM); 105 ± 6.7% in the series with hTERT-BJ1 cells (18 μM); 60 ± 2.3% with hTERT-BJ1 cells (185 μM).
